In article PMC7927146, “Discovery of an Orally Available Diazabicyclooctane Inhibitor (ETX0282) of Class A, C, and D Serine β-Lactamases” (Journal of Medicinal Chemistry, 2020):
Counter-ions that a name gives are not always drawn. One block for each compound: values may come before it.

Key:
E. coli TEM-1 (Class A) = E. coli TEM-1 (Class A) (Escherichia coli, UniProt P62593); test: β-lactamase inhibition, nitrocefin hydrolysis progress curves; type: biochemical; settings: supplement CSV; incubation time not given, values correspond to 60 min
Sequence of E. coli TEM-1 (Class A) (P62593 24-286 limits assumed): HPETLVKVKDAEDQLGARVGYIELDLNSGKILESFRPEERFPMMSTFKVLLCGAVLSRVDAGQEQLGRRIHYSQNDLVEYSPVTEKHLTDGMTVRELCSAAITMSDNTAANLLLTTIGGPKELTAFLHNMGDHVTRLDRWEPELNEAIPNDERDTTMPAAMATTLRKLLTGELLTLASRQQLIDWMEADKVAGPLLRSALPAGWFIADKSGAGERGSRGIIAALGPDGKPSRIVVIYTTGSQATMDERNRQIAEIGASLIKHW

[1] = system: K. pneumoniae ARC561 (OKP-6, AmpC, OXA-2, SHV-18) ATCC700603; test: Broth microdilution MIC (BLI alone, cefpodoxime, cefpodoxime + BLI); type: cell-based; settings: for MIC: Klebsiella pneumoniae, ATCC700603
[2] = biological target: P. aeruginosa AmpC (Class C) (Pseudomonas aeruginosa, UniProt P24735); test: β-lactamase inhibition, nitrocefin hydrolysis progress curves; type: biochemical
Sequence of P. aeruginosa AmpC (Class C) (P24735 27-397): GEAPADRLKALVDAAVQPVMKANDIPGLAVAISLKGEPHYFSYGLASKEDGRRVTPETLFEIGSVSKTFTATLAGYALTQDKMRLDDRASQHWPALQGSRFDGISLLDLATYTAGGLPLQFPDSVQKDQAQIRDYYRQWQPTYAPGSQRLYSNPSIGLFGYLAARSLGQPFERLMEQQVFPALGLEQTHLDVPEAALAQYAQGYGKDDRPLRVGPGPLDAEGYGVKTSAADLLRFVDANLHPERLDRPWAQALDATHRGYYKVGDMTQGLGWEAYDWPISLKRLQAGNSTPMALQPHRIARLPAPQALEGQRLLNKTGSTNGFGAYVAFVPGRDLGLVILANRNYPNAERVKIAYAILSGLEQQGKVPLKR

[3] = system: E. coli ARC3627 (OXA-1, AmpC, CTX-M-15, TEM-1); test: Broth microdilution MIC (BLI alone, cefpodoxime, cefpodoxime + BLI); type: cell-based; settings: for MIC: Escherichia coli
[4] = Stability in liver S9 fraction; type: in vitro ADME, rat; settings: 37 °C; for Half-life, Rat liver S9: 0.8 mg/mL protein, 10 μM
Protocol: (§1) Liver and intestinal S9 subcellular fractions (Xenotech) from rat and human tissue were diluted to a protein concentration of 0.8 mg/mL in 100 mM potassium phosphate buffer, pH 7.4, and preincubated in a 37 °C water bath for 5 min prior to addition of 10 μM (final) of compound of interest. Serial aliquots were removed at 0, 2, 5, 10, 20, 40, and 60 min and quenched in acetonitrile with internal standard prior to LC/MS/MS[30] to determine concentrations of prodrug. First order degradation half-lives were determined from the slope of the log–linear plots of the depletion data.

[5] = Stability in intestinal S9 fraction; type: in vitro ADME, human; settings: for half-life at 10 μM: human, intestinal S9 fraction, pH 7.4
Protocol: as §1

[6] = Stability in liver S9 fraction; type: in vitro ADME, human; settings: 37 °C; for Half-life, Human liver S9: 0.8 mg/mL protein, 10 μM
Protocol: as §1

[7] = Buffer stability of ester prodrugs; type: physicochemical; settings: potassium phosphate buffer pH 7.4, 37 °C; for Half-life, pH 7.4 buffer: 10 μM
Protocol: Buffer stability (potassium phosphate buffer, pH 7.4) was evaluated using the same protocol but without adding the S9 subcellular fractions.

[8] = Stability in intestinal S9 fraction; type: in vitro ADME, rat; settings: for half-life at 10 μM: rat, intestinal S9 fraction, pH 7.4
Protocol: as §1

[9] = biological target: class A, C, and D serine β-lactamases; test: β-lactamase inhibition, statements over the enzyme panel; type: biochemical; settings: 60 min; TEM-1, AmpC, OXA-48; read-out: IC50 against β-lactamases, all values
Protocol: The spectrum of class A, C, and D β-lactamase inhibition by ETX1317 was evaluated by measuring its ability to protect the β-lactamase substrate nitrocefin from degradation using previously described methods.[13]
The methods used to measure inhibition of β-lactamases were the same as those described in the supplement to Durand-Reville et al.[13] Reaction progress curves at 490 nm for hydrolysis of the chromogenic β-lactamase substrate nitrocefin (SynGene, Bangalore, India) at 100 μM were measured for a range of inhibitor concentrations in 0.1 M sodium phosphate (pH 7.0), 10 mM NaHCO3, and 0.005% Triton X-100 at ambient temperature using a Spectramax absorbance plate reader (Molecular Devices, Sunnyvale, CA). The set of 12 progress curves were fit globally to a second-order kinetic model of enzyme inactivation. […] The second-order inactivation rate constant kinact/Ki was calculated from the set of progress curves using Global Kinetic Explorer (Kintek) as previously described.[13]

log D = type: physicochemical
[10] = cited from earlier work
[11] = system: E. coli ARC2687 (CTX-M-14, AmpC); test: Broth microdilution MIC; type: cell-based; settings: Escherichia coli, agent alone
Protocol: (§2) The potency and spectrum of β-lactamase inhibition by ETX1317 supported further antibacterial profiling in combination with β-lactams against relevant Gram-negative clinical isolates. Approved penicillins and cephalosporins administered orally were evaluated, using not only MIC as a criterion but also oral bioavailability, approved dose levels, and unbound plasma exposures. Cefpodoxime (CPD) emerged as the lead β-lactam candidate.[30] Its approved use as an orally bioavailable proxetil ester prodrug to treat UTI infections was also aligned with our potential target product profile. A fixed 1:2 ratio of cefpodoxime/ETX1317 was utilized as the testing paradigm for antimicrobial susceptibility. […] The addition of ETX1317 to CPD restored its activity to ≤0.5 μg/mL across all Enterobacterales isolates tested, including the CRE strains (identified by “a” in Table 6).
(§3) The broth microdilution susceptibility testing was conducted according to CLSI[39] using CAMHB. Durlobactam and avibactam were synthesized at Entasis Therapeutics. Cefpodoxime (catalog no. J66225) was purchased from Alfa Aesar.

E. coli ARC2687 = test: Neutropenic mouse thigh infection model; type: in vivo; settings: CPDP alone, po, q6h
[12] = Phase 1 clinical trials in healthy volunteers (NCT03491748); type: in vivo, human; settings: alone or in combination with cefpodoxime proxetil
Protocol: (§4) The safety of ETX0282 was investigated with a 14-day toxicology study under Good Laboratory Practice (GLP) in rats and dogs following daily oral administration. The doses of 500 mg kg^–1 day^–1 and 400 mg kg^–1 day^–1 were established as the NOAELs (no observed adverse effect level) for rats and dogs, respectively.

[13] = Intravenous and oral pharmacokinetics in rats; settings: rat, 10 mg/kg equivalent dose of ETX1317
[14] = 14-day GLP toxicology study, daily oral administration; settings: in vivo
Protocol: as §4

[15] = system: MDR Enterobacterales clinical isolates; test: Broth microdilution MIC, statements over the isolate panel; type: cell-based; settings: read-out: MIC across the clinical isolates of Table 6
Protocol: as §2, §3

[16] = biological target: K. pneumoniae OXA-48 (Class D) (Klebsiella pneumoniae, UniProt Q6XEC0); test: biochemical
Sequence of K. pneumoniae OXA-48 (Class D) (Q6XEC0 23-265, looked up): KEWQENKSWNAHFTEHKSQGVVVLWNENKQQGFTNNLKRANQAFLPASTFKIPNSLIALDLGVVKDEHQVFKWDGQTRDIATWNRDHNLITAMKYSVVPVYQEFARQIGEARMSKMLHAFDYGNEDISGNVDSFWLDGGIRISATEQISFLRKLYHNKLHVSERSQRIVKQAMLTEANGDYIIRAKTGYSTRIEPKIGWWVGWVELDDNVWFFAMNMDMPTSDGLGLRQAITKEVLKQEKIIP

[17] = 0.8 mg/mL protein, 10 μM, 37 °C
[18] = species not given in the sentence, read-out: t1/2, stability to intestinal esterases

Structure (SMILES): CC1=C[C@@H](C(N)=O)N2C[C@@H]1N(O[C@H](F)C(=O)O)C2=O [Compound 13, (2R)-2-(((2S,5R)-2-Carbamoyl-4-methyl-7-oxo-1,6-diazabicyclo[3.2.1]oct-3-en-6-yl)oxy)-2-fluoroacetic Acid Lithium Salt]
IC50 (E. coli TEM-1 (Class A)): 0.003 µM | MIC [1]: 16 µg/mL | IC50 ([2]; IC50 (µM) P. aeruginosa AmpC (Class C), supplement CSV, incubation time not given, values correspond to 60 min): 0.16 µM

MIC [3]: 0.5 µg/mL
Structure (SMILES): CC1=C[C@@H](C(N)=O)N2C[C@@H]1N(O[C@@H](F)C(=O)O)C2=O [Compound 14]

Structure (SMILES): CCOC(=O)[C@@H](F)ON1C(=O)N2C[C@H]1C=C(C)[C@H]2C(N)=O [Compound 15]
Half-life, Rat liver S9 [4]: 4.4 min | Half-life, Human intestinal S9 [5, 17]: 38 min | Half-life, Human liver S9 [6]: 6.5 min | Half-life, pH 7.4 buffer [7]: 41 min | Half-life, Rat intestinal S9 [8, 17]: 39 min

Structure (SMILES): CC1=C[C@@H]2CN(C(=O)N2OC(F)(F)C(=O)O)[C@@H]1C(N)=O [Compound 2]
IC50 [9]: < 15 nM | IC50 (E. coli TEM-1 (Class A)): 0.001 µM

logD (log D): < 0
Structure (SMILES): NC(=O)[C@@H]1CC[C@@H]2CN1C(=O)N2OS(=O)(=O)O [Avibactam, avibactam]
oral bioavailability F [10]: < 10%

half-life at 10 μM ([4]; rat, liver S9 fraction, pH 7.4, 0.8 mg/mL protein): 10 min | half-life at 10 μM ([5]; 0.8 mg/mL protein, 10 μM, 37 °C, read-out: Half-life, Human intestinal S9): 22 min | half-life at 10 μM ([6]; human, liver S9 fraction, pH 7.4, 0.8 mg/mL protein): 9.9 min | half-life at 10 μM ([7]; potassium phosphate buffer without S9 fractions): 26 min | half-life at 10 μM ([8]; 0.8 mg/mL protein, 10 μM, 37 °C, read-out: Half-life, Rat intestinal S9): 20 min
Structure (SMILES): CCOC(=O)[C@H](F)ON1C(=O)N2C[C@H]1C=C(C)[C@H]2C(=O)NCCNS(N)(=O)=O [Compound 19]

Structure (SMILES): CCOC(=O)[C@H](F)ON1C(=O)N2C[C@H]1C(C)=C[C@H]2C(N)=O [Compound 20]
Half-life, Rat liver S9 [4]: 2.4 min | Half-life, Human intestinal S9 [5, 17]: 6.9 min | Half-life, Human liver S9 [6]: 2.4 min | Half-life, pH 7.4 buffer [7]: 22 min | Half-life, Rat intestinal S9 [8, 17]: 18 min

MIC [11]: 0.03 µg/mL
Structure (SMILES): C[C@@H](O)[C@H]1C(=O)N2C(C(=O)O)=C(S[C@@H]3CN[C@H](C(=O)N(C)C)C3)[C@H](C)[C@H]12 [meropenem]

Structure (SMILES): CC1=C[C@@H](C(N)=O)N2C[C@@H]1N(O[C@@H](F)C(=O)OC(C)C)C2=O [Compound 21]
Half-life, Rat liver S9 [4]: 3 min | Half-life, Human intestinal S9 [5, 17]: 36 min | Half-life, Human liver S9 [6]: 8.5 min | Half-life, pH 7.4 buffer [7]: 91 min | Half-life, Rat intestinal S9 [8, 17]: 68 min

Structure (SMILES): COCC1=C(C(=O)OC(C)OC(=O)OC(C)C)N2C(=O)[C@@H](NC(=O)/C(=N\OC)c3csc(N)n3)[C@H]2SC1 (stereo partly drawn) [CPDP, cefpodoxime proxetil]
efficacy in thigh model (E. coli ARC2687): not efficacious

Structure (SMILES): CCOC(=O)[C@@H](F)ON1C(=O)N2C[C@H]1C(C)=C[C@H]2C(N)=O [Compound 22, Ethyl (2R)-2-[[(2S,5R)-2-Carbamoyl-4-methyl-7-oxo-1,6-diazabicyclo[3.2.1]oct-3-en-6-yl]oxy]-2-fluoro-acetate]
Half-life, Rat liver S9 [4]: 20 min | Half-life, Human intestinal S9 [5, 17]: 35 min | Half-life, Human liver S9 [6]: 27 min | Half-life, pH 7.4 buffer [7]: 44 min | Half-life, Rat intestinal S9 [8, 17]: 42 min

Structure (SMILES): CC1=C[C@@H](C(N)=O)N2C[C@@H]1N(O[C@H](F)C(=O)OC(C)C)C2=O [Compound 23, (2R)-Isopropyl 2-(((2S,5R)-2-Carbamoyl-4-methyl-7-oxo-1,6-diazabicyclo[3.2.1]oct-3-en-6-yl)oxy)-2-fluoroacetate]
serious adverse events [12]: no serious adverse events reported | tolerability [12]: generally well-tolerated | circulating concentrations of ETX0282 after oral ETX0282 [13]: no circulating concentrations of ETX0282 observed | NOAEL at 14 day ([14]; dog, dogs): 400 mg/kg/day | NOAEL at 14 day ([14]; rat, rats): 500 mg/kg/day | Half-life, Rat liver S9 [4]: 32 min | Half-life, Human intestinal S9 [5, 17]: 163 min | Half-life, Human liver S9 [6]: 39 min | Half-life, pH 7.4 buffer [7]: 186 min | Half-life, Rat intestinal S9 [8, 17]: 240 min

half-life at 10 μM [5, 18]: > 120 min | half-life at 10 μM [8, 18]: > 120 min
Structure (SMILES): CC1=C[C@@H]2CN(C(=O)N2O[C@H](F)C(=O)OC(C)C)[C@@H]1C(N)=O [Compound 16]

Structure (SMILES): COCC1=C(C(=O)O)N2C(=O)[C@@H](NC(=O)/C(=N\OC)c3csc(N)n3)[C@H]2SC1 [cefpodoxime]
MIC [15]: > 64 µg/mL

Structure (SMILES): CC1=C[C@@H]2CN(C(=O)N2OS(=O)(=O)O)[C@@H]1C(N)=O [Durlobactam, durlobactam]
IC50 ([16]; IC50 10 min, 10 min incubation): 24 ± 6 nM | IC50 ([16]; IC50 60 min, 60 min incubation): 5 nM | logD (log D): < 0 | MIC [1]: 8 µg/mL | oral bioavailability F [10]: < 10% | IC50 ([2]; IC50 10 min, P. aeruginosa AmpC (Class C), 10 min incubation): 0.008 ± 0.003 µM | IC50 ([2]; IC50 60 min, P. aeruginosa AmpC (Class C), 60 min incubation): 0.0058 µM | MIC [3]: 0.25 µg/mL

Structure (SMILES): CC1=C[C@@H]2CN(C(=O)N2O[C@H](F)C(=O)O)[C@@H]1C(N)=O [Compound 4]
IC50 (E. coli TEM-1 (Class A)): 0.001 µM | fold reduction of cefpodoxime MIC compared to the MIC with no BLI ([1]; K. pneumoniae ARC561, BLI 4 μg/mL): greater than 128 fold | fold reduction of cefpodoxime MIC compared to the MIC with no BLI ([3]; E. coli ARC3627, BLI 4 μg/mL): greater than 128 fold

MIC [11]: > 4 µg/mL
Structure (SMILES): C[C@H]1COc2c(N3CCN(C)CC3)c(F)cc3c(=O)c(C(=O)O)cn1c23 [levofloxacin]
